According to publication PMC7690281 (Antiviral Research, 2020):
Entries after “also recorded” stand apart in the source; their conditions may differ. Where a name gives a salt, the structure may show the parent alone.

Tests used:
ASFV Bpp30GFP = type: cell-based, African swine fever virus (ASFV); conditions: for reduction of ASFV infectivity: 10 μM
[1] = system: SARS-2-CoV spike protein-pseudotyped retrovirus (SARS-2-Spp); type: cell-based, SARS-CoV-2
[2] = system: acidic endosomes of Vero cells; type: cell-based
[3] = system: ASFV viral DNA (p72 gene); type: cell-based, African swine fever virus (ASFV)
[4] = system: ASFV early p30 and late p72 proteins; type: cell-based, African swine fever virus (ASFV)
[5] = system: VSV pseudovirions with EBOV GP (rVSV-EBOV-luc); type: cell-based, Ebola virus (EBOV)
[6] = system: endolysosomal calcium in Vero cells; type: cell-based

## C[C@]12CC[C@@H]3c4ccc(O)cc4C[C@@H](CCCCCCCCC[S+]([O-])CCCC(F)(F)C(F)(F)F)[C@H]3[C@@H]1CC[C@@H]2O (stereo partly drawn) [Fulvestran, Fulvestrant]
ASFV Bpp30GFP; 100 μM
  impact on ASFV infectivity: under 20%

## COc1ccc2cc1Oc1ccc(cc1)C[C@H]1c3cc(c(OC)cc3CCN1C)Oc1c(OC)c(OC)cc3c1[C@H](C2)N(C)CC3 [Tetrandine, Tetrandrine]
[1]
  reduction of SARS-2-Spp entry (luciferase levels) compared to vehicle: over 99%

## C[C@]12CC[C@@H]3c4ccc(O)cc4CC[C@H]3[C@@H]1CC[C@@H]2O [Estradiol, β-Estradiol]
ASFV Bpp30GFP
  effect on ASFV infection/entry: low impact

## CO/C1=C\C(C)=C\[C@@H](C)[C@@H](O)[C@@H](C)C/C(C)=C/C=C/[C@H](OC)[C@@H]([C@@H](C)[C@@H](O)[C@H](C)[C@@]2(O)C[C@@H](O)[C@H](C)[C@@H](C(C)C)O2)OC1=O [BAF, Bafilomycin]
[2]
  endosome acidification (LysoTracker Red staining): strong reduction of acidic endosomes

## CC/C(=C(\c1ccccc1)c1ccc(OCCN(C)C)cc1)c1ccccc1 [Tamoxifen, Tamoxifen citrate]
ASFV Bpp30GFP
  effect on ASFV infection/entry: potent inhibitory effect; also recorded: strongly reduced ASFV entry
  reduction of ASFV infectivity: 80%
[3]
  viral DNA replication (ASFV genome copy number): reduced viral DNA synthesis
[4]
  expression of early viral protein p30 and late viral protein p72: reduction of the expression of early viral protein p30 and late viral protein p72

## Cc1cccc(/C=N/Nc2cc(N3CCOCC3)nc(OCCc3ccccn3)n2)c1 [Apilimod]
[5]
  infectivity reduction, EBOV GP pseudovirus: over 75%

## Cl.O=C(c1ccc(OCCN2CCCCC2)cc1)c1c(-c2ccc(O)cc2)sc2cc(O)ccc12 [Raloxifen, Raloxifene hydrochloride]
[1]
  reduction of SARS-2-Spp entry (luciferase levels) compared to vehicle: over 90%
ASFV Bpp30GFP
  effect on ASFV infection/entry: potent inhibitory effect; also recorded: strongly reduced ASFV entry
  reduction of ASFV infectivity: 80%
[3]
  viral DNA replication (ASFV genome copy number): reduced viral DNA synthesis
[4]
  expression of early viral protein p30 and late viral protein p72: reduction of the expression of early viral protein p30 and late viral protein p72
[6]
  distribution of calcium indicator Fluo8: calcium indicator markedly accumulated in fluorescent vesicles
  distribution of calcium indicator Fluo8 and viral factories: marked accumulation of fluorescent vesicles and the absence of viral factories

## Nc1ccc(C(=O)Nc2cccc(-c3nc(N4CCOCC4)c4oc5ncccc5c4n3)c2)cn1 [YM201636]
[1]; 1 μM
  reduction in the luciferase activity levels (SARS-2-Spp): 65%

## COc1ccc(CCN(C)CCCC(C#N)(c2ccc(OC)c(OC)c2)C(C)C)cc1OC (stereo not drawn) [Verapamil]
[1]
  reduction of SARS-2-Spp entry (luciferase levels) compared to vehicle: over 90%
